Reference: patent US11241427B2, “Small molecule modulators of NR2F6 activity” (Regen Biopharma, Inc., priority 2015, dated 2022)

target: T1, NR2F6 (ligand binding domain, amino acids 163-404) (Homo sapiens, UniProt P10588); experiment: Thermoshift analysis (TSA) of compound binding to NR2F6; conditions: Table 1.1; 100 μM compound, 0.5 mg/ml NR2F6, 1% DMSO; NR2F6 alone Tm 48 °C
T1 construct: HIS (N, cleaved yes); FLAG (N, cleaved yes); TEV site (N, cleaved yes); made in house; host or cells: E. coli BL21 (DE3)
T1 sequence (P10588 163-404): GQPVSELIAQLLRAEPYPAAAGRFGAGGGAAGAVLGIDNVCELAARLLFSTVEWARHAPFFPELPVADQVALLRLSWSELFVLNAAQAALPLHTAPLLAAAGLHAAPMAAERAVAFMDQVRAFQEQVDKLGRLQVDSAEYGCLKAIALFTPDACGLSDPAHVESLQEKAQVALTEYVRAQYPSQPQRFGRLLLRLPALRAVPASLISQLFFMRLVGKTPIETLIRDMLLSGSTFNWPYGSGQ
Experimental: The binding interaction between target protein NR2F6 and 139 compounds selected from an in silico screen was assessed using thermoshift analysis (TSA). Thermoshift is a physical technique used to determine the melting temperature of a protein. The interaction of the ligand to the folded state of the protein shifts the melting temperature. In the experimental system used, the NR2F6 protein is mixed with the ligand and the fluorescent dye SYPRO Orange®. The fluorescence is monitored over temperature gradient between 20 and 95° C. with 0.5° C. increment. The dye binds to the hydrophobic regions of molten globules and denatured proteins resulting in an increase of fluorescence. A plot of the fluorescence is obtained and used to determine the melting temperature in absence and presence of ligand.
The ligand binding domain of NR2F6 (amino acids 163-404) was cloned for soluble expression in E. coli with an N-terminal HIS-FLAG-TEV-tag. Expression was performed in BL21 (DE3) cells. In brief, a 12L E. coli culture was induced with IPTG in logarithmic phase and further incubated over night at 18° C. Cells were harvested via centrifugation, washed with buffer and stored at […] until purification.
The purification procedure performed consists of HIS affinity chromatography, tag cleavage, negative affinity chromatography, size exclusion chromatography and ion exchange chromatography.
Thermoshift analysis was performed on 139 Compounds that were stored as powder in DMSO stocks. A reaction volume of 25 μl was used, with reaction temperatures being increased in 0.5 increments from 20-95° C. in 96 well, PCR plates (Hard-Shell®, HSP-9655). The control was NR2F6 protein alone in 1% DMSO. For performing the reaction, a reaction buffer comprising of the following was utilized: 20 mM HEPES pH 6.85, 150 mM NaCl, 10% Glycerin and 0.5 mM TCEP.
The following pipetting sequence was used: 1) Add appropriate volume of target enzyme in reaction buffer; 2) Add appropriate volume of dye SYPRO Orange® in reaction buffer; 3) Add inhibitor in 100% DMSO (1% final DMSO conc); 4) Measure fluorescence
Fluorescence was quantified using a CFX Connect™ Real-Time PCR Detection System (BioRad)
An increase in melting temperature is indicative for compound binding.

Structure (SMILES)	Tm [°C]
CCN=c1scc(-c2ccc3c(c2)NC(=O)CO3)n1N=C1CCCC1 [Cpd 137]	48
COc1ccc(/C=N/OCC(=O)NC(c2ccccc2)c2ccccc2)cc1OC [Cpd 138]	46
CC(=O)c1c(C)[nH]c(C(=O)OCC(=O)Nc2ccc(Cl)cc2[N+](=O)[O-])c1C [Cpd 139]	48.5

same assay, conditions: Table 1.1; 100 μM compound; shift versus NR2F6 alone (Tm 48 °C)

Structure (SMILES)	delta Tm [°C]
CCN=c1scc(-c2ccc3c(c2)NC(=O)CO3)n1N=C1CCCC1 [Cpd 137]	0
COc1ccc(/C=N/OCC(=O)NC(c2ccccc2)c2ccccc2)cc1OC [Cpd 138]	−2
CC(=O)c1c(C)[nH]c(C(=O)OCC(=O)Nc2ccc(Cl)cc2[N+](=O)[O-])c1C [Cpd 139]	0.5
